Values of other authors, collected in patent publication US5547866A (priority 1994, dated 1996).

Test system: breast, lung and other cancers
Conditions: background

SMILES: CC(=O)O[C@H]1C(=O)[C@@]2(C)[C@H]([C@H](OC(=O)c3ccccc3)[C@]3(O)C[C@H](OC(=O)[C@H](O)[C@@H](NC(=O)c4ccccc4)c4ccccc4)C(C)=C1C3(C)C)[C@]1(OC(C)=O)CO[C@@H]1C[C@@H]2O [taxol]
- activity against breast, lung and other cancers: shown activity against breast, lung and other cancers
